# Reference: PMC9635984 (Bioorganic & medicinal chemistry letters, 2022)
# Tested on: MDA-MB-231 breast cancer cells
# Test: In vitro antitumor activity against breast cancer cell line MDA-MB-231
# Type: cell-based
# Settings: Homo sapiens, MDA-MB-231, read-out: IC50 (μM) MDA-MB-231
structure (smiles),measurement,value
"Cn1c(CCCC(=O)O)nc2cc(N(CCCl)CCCl)ccc21 [Bendamustiune, bendamustine]",IC50,13.3 µM
